Assay results taken from paper PMC4491105, “Synthesis and anticancer activity of thiosubstituted purines” (Medicinal Chemistry Research, 2015).
Values after ≈ are worked out from the molar mass of the structure shown. “Also recorded” adds a separate entry of the source.

Key:
[1] = test system: SNB-19 (human glioblastoma); assay: Antiproliferative WST-1 assay, glioblastoma SNB-19; format: cell-based; settings: for EC50: Homo sapiens, SNB-19, 72 h, read-out: Antiproliferative activity EC50 SBN-19; for EC50 / Activity against SNB-19 cell line (in words) / Antiproliferative activity EC50 SBN-19: SNB-19 cells; for EC50 / Antiproliferative activity EC50 SBN-19: 72 h exposure, WST-1; for Activity against SNB-19 cell line (in words): compared with azathioprine
Procedure: (§1) Compounds were evaluated for their anticancer activity using […] cultured cell lines: SNB-19 (human glioblastoma, DSMZ—German Collection of Microorganisms and Cell Cultures, Braunschweig, Germany), C-32 (human amelanotic melanoma, ATCC—American Type Culture Collection, Manassas, VA, USA), T47D (human ductal breast epithelial tumor cell line, ATCC, Manassas, VA, USA), and HFF-1 (human fibroblast cell line, ATCC, Manassas, VA, USA). The cultured cells were kept at 37 °C and 5 % CO2. The cells were seeded (1 × 10^4 cells/well/100 μl DMEM supplemented with 10 % FCS and streptomycin and penicillin) using 96-well plates (Corning).
(§2) In recent years, tetrazolium salts have been described which can be used for the measurement of cell proliferation and viability. The tetrazolium salts are cleaved to formazan by cellular enzymes. An expansion in the number of viable cells results in an increase in the overall activity of mitochondrial dehydrogenases in the sample. This augmentation in enzyme activity leads to an increase in the amount of formazan dye formed, which directly correlates with the number of metabolically active cells in the culture. The formazan dye produced by metabolically active cells is quantified by a scanning ELISA reader by measuring the absorbance of the dye solution at appropriate wavelengths (λ = 420–480 nm with a reference wavelength λ = 600 nm).
(§3) Antiproliferative effect of compounds was determined using the Cell Proliferation Reagent WST-1 assay (Roche Diagnostics, Mannheim, Germany). After exposure to tested compounds (at concentrations between 0 and 100 μg/ml) for 72 h, cells were incubated with WST-1 (10 μl) for 1 h, and the absorbance of the samples against a background control was read at 450 nm using with a reference wavelength λ = 600 nm a microplate reader. Results are expressed as means of at least two independent experiments performed in triplicate.

[2] = test system: C-32 (human amelanotic melanoma); assay: Antiproliferative WST-1 assay, melanoma C-32; format: cell-based; settings: C-32 cells; for EC50: Homo sapiens, C32
Procedure: as §1, §2, §3

[3] = test system: T47D (human ductal breast epithelial tumor cell line); assay: Antiproliferative WST-1 assay, breast tumor T47D; format: cell-based; settings: T47D cells; for EC50: Homo sapiens, read-out: Antiproliferative activity EC50 T47-D
Procedure: as §1, §2, §3

[4] = test system: HFF-1 (human fibroblast cell line); assay: Antiproliferative WST-1 assay, normal fibroblasts HFF-1 (toxicity control); format: cell-based
Procedure: as §1, §2, §3

[5] = normal human fibroblasts HFF-1, 72 h exposure, WST-1

SMILES: CSc1nc(S(N)(=O)=O)c2c(ncn2C)n1 [Compound 8c, 2-Methylthio-7-methyl-6-purinesulfonamide]
- EC50 [1]: > 50 µg/mL
- EC50 ([2]; 72 h exposure, WST-1): > 50 µg/mL
- EC50 ([3]; 72 h exposure, WST-1): > 50 µg/mL
- EC50 [4, 5]: > 50 µg/mL

SMILES: Cn1cnc([N+](=O)[O-])c1Sc1nc(Cl)nc2ncn(C)c12 [Compound 3a]
- EC50 [1]: 30.4 µg/mL (≈ 93.3 µM)
- Activity against SNB-19 cell line (in words) [1]: more active than azathioprine
- Activity against C-32 cell line (in words) [2]: more active than azathioprine; also recorded: good activity
- EC50 ([2]; 72 h exposure, WST-1): 12.8 µg/mL (≈ 39.3 µM)
- EC50 ([3]; 72 h exposure, WST-1): > 50 µg/mL
- EC50 [4, 5]: 34.9 µg/mL (≈ 107 µM)

SMILES: CSc1nc(Sc2c([N+](=O)[O-])ncn2C)c2c(ncn2C)n1 [Compound 3c]
- EC50 [1]: > 50 µg/mL
- EC50 ([2]; 72 h exposure, WST-1): > 50 µg/mL
- EC50 ([3]; 72 h exposure, WST-1): 48.6 µg/mL (≈ 144 µM)
- EC50 [4, 5]: > 50 µg/mL

SMILES: Cn1cnc([N+](=O)[O-])c1Sc1nc(Cl)c2c(ncn2C)n1 [Compound 2a]
- EC50 [1]: 17.9 µg/mL (≈ 55 µM)
- Activity against SNB-19 cell line (in words) [1]: more active than azathioprine
- Activity against C-32 cell line (in words) [2]: more active than azathioprine
- EC50 ([2]; 72 h exposure, WST-1): 21.8 µg/mL (≈ 66.8 µM)
- EC50 ([3]; 72 h exposure, WST-1): 41.1 µg/mL (≈ 126 µM)
- EC50 [4, 5]: > 50 µg/mL

SMILES: Cn1cnc([N+](=O)[O-])c1Sc1ncnc2nc[nH]c12 [Azathioprine, reference compound]
- EC50 [1]: 37.2 µg/mL (≈ 134 µM)
- EC50 ([2]; 72 h exposure, WST-1): 35.6 µg/mL (≈ 128 µM)
- EC50 ([3]; 72 h exposure, WST-1): 39 µg/mL (≈ 141 µM)
- EC50 [4, 5]: 55.9 µg/mL (≈ 202 µM)

SMILES: CCN(CC)CCSc1nc(SCCN(CC)CC)c2c(ncn2C)n1 [Compound 4c]
- EC50 [1]: < 10 µg/mL
- Antiproliferative activity EC50 SBN-19 [1]: 9.82 µg/mL
- EC50 ([2]; 72 h exposure, WST-1): 33.5 µg/mL (≈ 84.6 µM)
- EC50 ([3]; 72 h exposure, WST-1): 24 µg/mL (≈ 60.5 µM)
- EC50 [4, 5]: 40 µg/mL (≈ 101 µM)

SMILES: Cn1cnc2nc(SCCN3CCOCC3)nc(SCCN3CCOCC3)c21 [Compound 4g]
- EC50 [1]: > 50 µg/mL
- EC50 ([2]; 72 h exposure, WST-1): > 50 µg/mL
- EC50 ([3]; 72 h exposure, WST-1): > 50 µg/mL
- EC50 [4, 5]: > 50 µg/mL

SMILES: COc1nc(S(N)(=O)=O)c2c(ncn2C)n1 [Compound 8b, 2-Methoxy-7-methyl-6-purinesulfonamide]
- EC50 [1]: 35 µg/mL (≈ 144 µM)
- EC50 ([2]; 72 h exposure, WST-1): > 50 µg/mL
- EC50 ([3]; 72 h exposure, WST-1): > 50 µg/mL
- EC50 [4, 5]: > 50 µg/mL

SMILES: Cn1cnc([N+](=O)[O-])c1Sc1nc(Sc2c([N+](=O)[O-])ncn2C)c2c(ncn2C)n1 [Compound 3d, 7-methyl-2,6-di(1-methyl-4-nitroimidazol-5-ylthio)purine]
- EC50 [1]: > 50 µg/mL
- Anticancer activity against tested cell lines (in words) ([1]; SNB-19, C-32 and T47D cell lines overall): inactive
- EC50 ([2]; 72 h exposure, WST-1): > 50 µg/mL
- EC50 ([3]; 72 h exposure, WST-1): > 50 µg/mL
- EC50 [4, 5]: > 50 µg/mL

SMILES: Cn1cnc2nc(Cl)nc(SN)c21 [Compound 10a, 2-Chloro-7-methyl-6-purinesulfenamide]
- EC50 [1]: > 50 µg/mL
- EC50 ([2]; 72 h exposure, WST-1): > 50 µg/mL
- EC50 ([3]; 72 h exposure, WST-1): > 50 µg/mL
- EC50 [4, 5]: > 50 µg/mL

SMILES: CN(C)CCCSc1nc(SCCCN(C)C)c2c(ncn2C)n1 [Compound 4d]
- EC50 [1]: 36.3 µg/mL (≈ 98.4 µM)
- EC50 ([2]; 72 h exposure, WST-1): > 50 µg/mL
- EC50 ([3]; 72 h exposure, WST-1): > 50 µg/mL
- EC50 [4, 5]: > 50 µg/mL

SMILES: COc1nc(Sc2c([N+](=O)[O-])ncn2C)c2c(ncn2C)n1 [Compound 3b]
- EC50 [1]: > 50 µg/mL
- EC50 ([2]; 72 h exposure, WST-1): > 50 µg/mL
- EC50 ([3]; 72 h exposure, WST-1): > 50 µg/mL
- EC50 [4, 5]: > 50 µg/mL

SMILES: Cn1cnc2nc(SCCN3CCCC3)nc(SCCN3CCCC3)c21 [Compound 4e]
- EC50 [1]: < 10 µg/mL
- Antiproliferative activity EC50 SBN-19 [1]: 7.95 µg/mL
- EC50 ([2]; 72 h exposure, WST-1): 27.1 µg/mL (≈ 68.9 µM)
- EC50 ([3]; 72 h exposure, WST-1): 38.4 µg/mL (≈ 97.8 µM)
- EC50 [4, 5]: 35.4 µg/mL (≈ 90.2 µM)

SMILES: Cn1cnc2nc(Cl)nc(S(N)(=O)=O)c21 [Compound 8a, 2-Chloro-7-methyl-6-purinesulfonamide]
- EC50 [1]: > 50 µg/mL
- EC50 ([2]; 72 h exposure, WST-1): > 50 µg/mL
- EC50 ([3]; 72 h exposure, WST-1): > 50 µg/mL
- EC50 [4, 5]: > 50 µg/mL

SMILES: Cn1cnc2nc(S(N)(=O)=O)nc(S(N)(=O)=O)c21 [Compound 8d, 7-Methyl-2,6-purinedisulfonamide]
- EC50 [1]: > 50 µg/mL
- EC50 ([2]; 72 h exposure, WST-1): > 50 µg/mL
- EC50 ([3]; 72 h exposure, WST-1): > 50 µg/mL
- EC50 [4, 5]: > 50 µg/mL

SMILES: Cn1cnc2nc(Cl)nc(SCC#CCN3CCCC3)c21 [Compound 5b, 2-chloro-6-(4-N-pyrrolidinylbut-2-ynylthio)-7-methylpurine]
- EC50 [1]: 5 µg/mL (≈ 15.5 µM)
- EC50 ([2]; 72 h exposure, WST-1): 7.58 µg/mL (≈ 23.6 µM)
- EC50 ([3]; 72 h exposure, WST-1): 46 µg/mL (≈ 143 µM)
- Activity against T47D cell line (in words) [3]: weak active
- Toxicity against normal fibroblasts HFF-1 (in words) ([4]; HFF-1 cells): weak active
- EC50 [4, 5]: 43.1 µg/mL (≈ 134 µM)
- melting point: 129 to 130 °C

SMILES: C=CCSc1nc(Sc2c([N+](=O)[O-])ncn2C)nc2ncn(C)c12 [Compound 2b]
- EC50 [1]: 33.3 µg/mL (≈ 91.5 µM)
- Activity against SNB-19 cell line (in words) [1]: more active than azathioprine
- Activity against C-32 cell line (in words) [2]: more active than azathioprine
- EC50 ([2]; 72 h exposure, WST-1): 35.3 µg/mL (≈ 97.2 µM)
- EC50 ([3]; 72 h exposure, WST-1): 49.6 µg/mL (≈ 136 µM)
- EC50 [4, 5]: > 50 µg/mL

SMILES: C#CCSc1nc(Cl)nc2ncn(C)c12 [Compound 5a, 2-chloro-6-(prop-2-ynylthio)-7-methylpurine]
- EC50 [1]: 30.9 µg/mL (≈ 130 µM)
- EC50 ([2]; 72 h exposure, WST-1): 35.4 µg/mL (≈ 148 µM)
- EC50 ([3]; 72 h exposure, WST-1): 44.3 µg/mL (≈ 186 µM)
- EC50 [4, 5]: 49 µg/mL (≈ 205 µM)
- melting point: 183 to 184 °C

SMILES: Cn1cnc2nc(SCCN3CCCCC3)nc(SCCN3CCCCC3)c21 [Compound 4f]
- EC50 [1]: < 10 µg/mL
- Antiproliferative activity EC50 SBN-19 [1]: 9.18 µg/mL
- EC50 ([2]; 72 h exposure, WST-1): 21.8 µg/mL (≈ 51.8 µM)
- EC50 ([3]; 72 h exposure, WST-1): 32.2 µg/mL (≈ 76.7 µM)
- EC50 [4, 5]: 45.5 µg/mL (≈ 108 µM)

SMILES: CCN(CC)CCSc1nc(Cl)nc2ncn(C)c12 [Compound 4a]
- EC50 [1]: 28.8 µg/mL (≈ 96 µM)
- EC50 ([2]; 72 h exposure, WST-1): 22.5 µg/mL (≈ 74.9 µM)
- EC50 ([3]; 72 h exposure, WST-1): 41.3 µg/mL (≈ 138 µM)
- EC50 [4, 5]: > 50 µg/mL

SMILES: CN(C)CCCSc1nc(Cl)nc2ncn(C)c12 [Compound 4b]
- EC50 [1]: < 10 µg/mL
- Antiproliferative activity EC50 SBN-19 [1]: 8.45 µg/mL
- EC50 ([2]; 72 h exposure, WST-1): > 50 µg/mL
- EC50 ([3]; 72 h exposure, WST-1): > 50 µg/mL
- EC50 [4, 5]: > 50 µg/mL

SMILES: N.N.[Cl][Pt][Cl] [Cisplatin, reference compound]
- Antiproliferative activity EC50 SBN-19 [1]: 4.45 µg/mL
- Antiproliferative activity EC50 C-32 ([2]; 72 h exposure, WST-1): 6.28 µg/mL
- Antiproliferative activity EC50 T47-D ([3]; 72 h exposure, WST-1): 8.79 µg/mL
- Antiproliferative activity EC50 HFF-1 [4, 5]: 30.00 µg/mL
